Reference: US6545033B1, “Fused 1-(2,6-dichloro-4-trifluoromethylphenyl)-pyrazoles, the synthesis thereof and the use thereof as pesticides” (3-Dimensional Pharmaceuticals, Inc., priority 1999, dated 2003)

Key:
[1] = target: T1, Housefly GABA receptors (Musca domestica, UniProt Q75NA5); test: In vitro assay of binding to housefly GABA receptors (3H-EBOB displacement, housefly neuronal membranes); conditions: housefly neuronal membranes
T1 sequence (Q75NA5 30-576): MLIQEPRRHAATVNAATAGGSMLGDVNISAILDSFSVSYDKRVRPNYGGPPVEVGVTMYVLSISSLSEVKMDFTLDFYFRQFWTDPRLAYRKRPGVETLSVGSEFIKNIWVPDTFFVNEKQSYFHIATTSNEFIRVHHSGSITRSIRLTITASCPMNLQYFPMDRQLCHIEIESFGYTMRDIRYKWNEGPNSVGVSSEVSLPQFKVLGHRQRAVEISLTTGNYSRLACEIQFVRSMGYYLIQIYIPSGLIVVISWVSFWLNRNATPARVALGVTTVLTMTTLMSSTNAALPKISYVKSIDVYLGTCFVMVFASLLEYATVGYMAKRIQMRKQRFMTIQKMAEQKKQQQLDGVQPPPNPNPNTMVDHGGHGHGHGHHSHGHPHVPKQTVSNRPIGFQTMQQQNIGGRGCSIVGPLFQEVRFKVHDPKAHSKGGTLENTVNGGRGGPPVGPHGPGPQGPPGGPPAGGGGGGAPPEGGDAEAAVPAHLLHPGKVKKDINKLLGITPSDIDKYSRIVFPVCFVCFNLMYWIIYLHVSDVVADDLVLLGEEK
Experimental: Newly emerged houseflies (Musca domestica, available from Rincon-Vitova Insectaries, Inc., Ventura, Calif.) were sedated with carbon dioxide gas, collected in 50 mL polypropylene conical tubes, and immediately frozen by submersion in liquid nitrogen. Unless specified, all of the following work was performed at 0-4° C. After removal from liquid nitrogen, the tubes of frozen houseflies were shaken vigorously by hand to decapitate the houseflies. […] Contaminating wings were removed by holding a vacuum nozzle approximately 4 cm above the heads, and contaminating legs were separated from the heads by passage through a #15 mesh screen. All remaining debris were removed from the pool of heads using forceps. The purified heads were collected in 50 mL polypropylene conical tubes and stored in liquid nitrogen until processed further.
About 13 g of purified housefly heads were suspended in about 65 mL of 10% sucrose buffer (10% sucrose (w/w) in 10 mM Tris, pH 7.5). The heads were homogenized for about 1 minute, using a Tissumizer™ homogenizer equipped with a SDT-100EN probe (available from Tekmar-Dohrmann, Cincinnati, Ohio) running at 70% of its maximum speed. The extract was further homogenized by about 5 passes through a 40 mL Dounce tissue grinder. The extract was then centrifuged at about 500×g for about 5 minutes to pellet large debris. The supernatant was collected; the pellet was washed with an additional 65 mL of 10% sucrose buffer and centrifuged at 500×g for about 5 minutes. The second supernatant was collected and combined with the first supernatant, and the pool was filtered through a 100μ CellMicroSieve™ mesh to remove residual debris (available from BioDesign of New York, Carmel, N.Y.).
Neuronal membranes containing active GABA receptors were collected via sucrose density centrifugation by the following method. About 8 mL of 35% sucrose buffer (35% sucrose (w/w) in 10 mM Tris, pH 7.5), were dispensed into each of six 38 mL ultracentrifuge tubes. These layers were overlaid with about 8 mL of 20% sucrose buffer (20% sucrose (w/w) in 10 mM Tris, pH 7.5), and finally overlaid with about 20 mL of filtered extract supernatant. The tubes were centrifuged at about 120,000×g for about 100 min at 4° C. After centrifugation, the 10% sucrose layer and most of the 20% sucrose layer were removed by aspiration. The membranes at the interface of the 20% sucrose and 35% sucrose layers were collected, pooled, diluted with 10% sucrose buffer, and centrifuged at about 120,000×g for about 40 min at 4° C. After centrifugation, the supernatant was discarded, and the pellets resuspended in about 6.5 mL of assay buffer (10 mM phosphate, 300 mM NaCl, pH 7.5) using a 10 mL Potter-Elvehjem tissue grinder with a Teflon® pestle. Protein concentration was determined by the Bio-Rad Protein Assay (available from Bio-Rad Laboratories, Hercules, Calif.) using bovine serum albumin as a standard. The membranes were aliquoted and stored in liquid nitrogen for up to 2 months before use.
Housefly neuronal membranes were prepared as described above from housefly heads. Test compounds were dissolved in dimethylsulfoxide (DMSO) at concentrations ranging from about 2 nM to about 100 mM. About 1 μL of a dissolved test compound was dispensed into a well of a 96-well polystyrene plate. About 100 μL of ice cold assay buffer (10 mM phosphate, 300 mM NaCl, pH 7.5) containing 5.2 nM 4′-Ethynyl-4-n-[2,3-^3H2]propylbicycloorthobenzoate (^3H-EBOB, 38 Ci/mmol, available from NEN Life Science Products, Boston, Mass.) was added to the well, followed by about 100 μL of ice cold assay buffer containing about 0.5-1.0 mg/mL housefly neuronal membranes. Control wells were prepared the same way except that the housefly neuronal membranes were omitted from the “negative” wells, and the test compounds were omitted from the “positive” wells. […]

[2] = test system: houseflies (Musca domestica); test: In vivo housefly contact assay; conditions: contact in coated glass test tube, about 24 hours; mM = concentration of the DMSO solution, about 1 μL applied
Experimental: This example describes an in vivo assay to screen compounds for their ability to kill houseflies via contact. Newly emerged houseflies (Musca domestica, available from Rincon-Vitova Insectaries, Inc., Ventura, Calif.) were sedated with carbon dioxide gas, collected in 50 mL polypropylene conical tubes containing filter paper saturated with 10% (w/w) sucrose in water, and allowed to feed at room temperature for about 2-4 hours. Test compounds were dissolved as in dimethylsulfoxide (DMSO) at concentrations ranging from about 0.05 mM to about 100 mM. About 1 μL of dissolved test compound and about 100 μL of isopropanol were dispensed into the bottom of a 9 mL screw-top glass test tube. Positive control test tubes were prepared in the same manner except that no test compounds were dissolved in the DMSO. Each test tube was rolled to coat the sides with the chemical solution, and allowed to air dry 24-48 hours. About 20 houseflies were sedated by refrigeration at 0-4° C. and transferred to each test tube. Each test tube was sealed with organdy cloth secured by an open top screw cap and laid horizontally in the dark. After about 24 hours, the healthy, moribund, and dead houseflies in each test tube were counted. The percentage of dead houseflies in each test tube was then calculated using the formula M=100(D−(FC/100))/(F−(FC/100)), in which M is the percentage of dead houseflies due to the addition of the test compound, D is the number of dead houseflies in the test tube, F is the total number of houseflies in the test tube, and C is the percentage of dead houseflies in the control test tubes.

[3] = test system: cat fleas (Ctenocephalides felis), CO Fleas; test: In vivo cat flea contact assay, CO fleas; conditions: Ctenocephalides felis, topical; contact with treated filter disk in vial, about 24-30 hours; mM = concentration of the DMSO solution, about 1 μL applied; read-out: LD50 (mM), CO Fleas
Experimental: (§1) This example describes an in vivo assay to screen compounds for their ability to kill cat fleas via contact.
(§2) Test compounds were dissolved in dimethylsulfoxide (DMSO) at concentrations ranging from about 0.05 mM to about 100 mM. About 1 μL of dissolved test compound was dispensed onto a 6 mm (diameter) GF/C filter disk (filter material available from Whatman Inc., Clifton, N.J.) in the bottom of a 4 mL screw-top glass vial and allowed to air dry 24-48 hours. Positive control vials were prepared in the same manner except that no test compounds were dissolved in the DMSO. About 20 newly emerged cat fleas (Ctenocephalides felis) were sedated by refrigeration at 0-4° C. and transferred to each vial. Each vial was sealed with a thin, perforated Teflon™ septum secured by an open top screw cap and held vertically in the dark. After about 24-30 hours, the healthy, moribund, and dead cat fleas in each vial were counted. The percentage of dead cat fleas in each vial was then calculated using the formula M=100(D−(FC/100))/(F−(FC/100)), in which M is the percentage of dead cat fleas due to the addition of the test compound, D is the number of dead cat fleas in the test vial, F is the total number of cat fleas in the test vial, and C is the percentage of dead cat fleas in the control vials.

[4] = test system: cat fleas (Ctenocephalides felis), NC Fleas; test: In vivo cat flea contact assay, NC fleas; conditions: contact with treated filter disk in vial, about 24-30 hours; mM = concentration of the DMSO solution, about 1 μL applied
Experimental: as §1, §2

SMILES: CC1(C)CCc2nn(-c3c(Cl)cc(C(F)(F)F)cc3Cl)cc21 [Compound 38, 2-[2,6-Dichloro-4-(trifluoromethyl)phenyl]-4,4-dimethyl-2,4,5,6-tetrahydrocyclopenta[c]pyrazole]
- Compounds with the most activity (housefly 3H-EBOB binding) [1]: most activity
- LD50 (mM), Flies [2]: >100 mM
- LC50 [3]: 54 mM
- LD50 (mM), NC Fleas [4]: 15 mM

SMILES: FC(F)(F)c1cc(Cl)c(-n2cc3c(n2)C2CCC3C2)c(Cl)c1 (stereo not drawn) [Compound 35, 3,4-Diaza-4-[2,6-dichloro-4-(trifluoromethyl)phenyl]tricyclo-[5.2.1.0^2.6]deca-2,5-diene]
- Compounds with the most activity (housefly 3H-EBOB binding) [1]: most activity
- LD50 (mM), Flies [2]: 48 mM
- LC50 [3]: 17 mM
- LD50 (mM), NC Fleas [4]: 12 mM

SMILES: FC(F)(F)c1cc(Cl)c(-n2cc3c(n2)CCCC3)c(Cl)c1 [Compound 13, 2-[2,6-Dichloro-4-(trifluoromethyl)phenyl]-4,5,6,7-tetrahydro-2H-indazole]
- Compounds with the most activity (housefly 3H-EBOB binding) [1]: most activity
- LD50 (mM), Flies [2]: >100 mM
- LC50 [3]: 37.5 mM
- LD50 (mM), NC Fleas [4]: 20 mM
